Inconclusive results are not listed.

The subject of the experiment is U2OS PGC1a acetylation AlphaLISA, overnight. Briefly: activators raising PGC1a acetylation in cells, dose response, cell-based, cherry-picked samples, set 6 (AID 720513).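 Also: cells made to overexpress flag tagged PGC1a plus GCN5 acetyltransferase by viral infection.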
Regarding `CC(C)(C)C(=O)Nc1sc2c(c1-c1nc3ccccc3[nH]1)CCCC2`, the AC40 is 18.4 µM.

In the case of `COCCCn1c(N)c(C(=O)Nc2ccccc2)c2nc3ccccc3nc21`, the AC40 is 1.18 µM.

Regarding `CC1CCCN(Cc2c(O)ccc3c(=O)c(-c4nc5ccccc5s4)c(N)oc23)C1` (configuration not stated), the AC40 was 5.03 µM.

As to `COc1ccc(OC(=O)N(C)C[C@H]2OCc3ccccc3-c3c(n(C)c4ccccc34)C(=O)N([C@@H](C)CO)C[C@H]2C)cc1`, the AC40 is 6.72 µM.

Take `CCn1c(SC/C=C/c2ccccc2)nnc1-c1cccs1`: the AC40 was 11.2 µM.

On to `Cc1cc(C(=O)NNS(=O)(=O)c2ccccc2C(F)(F)F)nn1C(C)(C)C`, for which the AC40 is 1.04 µM.

Take `COc1ccc(S(=O)(=O)N2CC[C@@H]3[C@H](CO)Nc4ccc(-c5ccccc5F)cc4[C@@H]32)cc1`: the AC40 is 12.4 µM.

For the compound `CCOC(=O)C1CCCN(S(=O)(=O)c2ccc3c(c2)NC(=O)CO3)C1` (configuration not stated), the AC40 was 0.439 µM.

With `c1ccc(C(c2nnnn2Cc2cccs2)N2CCN(C3CCCC3)CC2)cc1` (configuration not stated), the AC40 is 0.483 µM.

For the compound `C[C@@H]1CN([C@@H](C)CO)C(=O)c2c(c3ccccc3n2C)-c2ccccc2CO[C@@H]1CN(C)C(=O)Nc1ccc2c(c1)OCO2`, the AC40 was 7.87 µM.

With `CCOC(=O)C1=CC[C@@H](c2ccccc2)N(S(=O)(=O)c2ccc(C)cc2)[C@H]1c1ccc(CC)cc1`, the AC40 was 0.785 µM.

For the compound `Cc1ccc(/C(N)=N/OC(=O)c2ccco2)cc1`, the AC40 is 8.81 µM.

For the compound `CCCc1cc2c(cc1N(C)S(=O)(=O)c1ccccc1)OCO2`, the AC40 is 2.96 µM.

Turning to `O=C(c1ccccc1)C(O)(Cc1ccccc1)c1ccccc1` (configuration not stated), the AC40 was 0.901 µM.

Take `COC(=O)C(Nc1ccccc1Cl)(c1cc(C)c(O)c(C)c1)C(F)(F)F` (configuration not stated): the AC40 is 0.641 µM.

`COc1ccc(CCn2c(-c3ccc(OC)cc3)nc3c(c(=O)c4ccccc4n3C)c2=O)cc1`: the AC40 is 7.43 µM.

`COc1ccc(OC)c(C(=O)/C=C/c2ccccc2C(F)(F)F)c1`: the AC40 is 8.62 µM.

`COc1ccc(Nc2nnc(-c3ccc(C(N)=O)cc3)c3ccccc23)cc1`: the AC40 is 0.524 µM.

In the case of `O=C(Nc1c(F)cccc1F)c1ccc(-n2cncn2)nc1`, the AC40 is 9.12 µM.

On to `CCOCCn1c(CN(Cc2ccccc2)Cc2ccccc2)nc2c1c(=O)[nH]c(=O)n2C`, for which the AC40 is 5.12 µM.

As for `CC(Oc1ccc(Cl)cc1Cl)c1nc(-c2ccc(NC(=O)c3cccnc3)cc2)no1` (configuration not stated), the AC40 was 0.581 µM.

Regarding `Cc1ccccc1NC(=O)c1nc(S(C)(=O)=O)ncc1Cl`, the AC40 is 0.992 µM.

On to `CC(C)NC(=O)Nc1ccc2c(c1)C(=O)N([C@@H](C)CO)C[C@@H](C)[C@@H](CN(C)S(=O)(=O)c1ccccc1)OCCCC[C@H](C)O2`, for which the AC40 is 14.8 µM.

In the case of `CCN(CC)c1ccc(NC(=O)c2cc(OC)cc(OC)c2)c(C)c1`, the AC40 was 12.3 µM.

On to `COc1ccc(S(=O)(=O)N(C)C[C@@H]2Oc3cc(C#CC4CC4)ccc3S(=O)(=O)N([C@@H](C)CO)C[C@@H]2C)cc1`, for which the AC40 was 15.2 µM.

On to `CC(=O)c1cccc(N(C(=O)Cn2nnc3ccccc32)C(C(=O)NCc2ccccc2)c2ccccn2)c1` (configuration not stated), for which the AC40 was 10.5 µM.

On to `CCOC(=O)C1=CC[C@@H](c2ccc(F)cc2)N(S(=O)(=O)c2ccc(C)cc2)[C@H]1c1ccccc1`, for which the AC40 was 3.22 µM.

Regarding `CCOc1ccccc1N(C)C(=O)C1CCN(S(=O)(=O)c2cccc3nonc23)CC1`, the AC40 was 3.29 µM.

Turning to `Cc1ccc2[nH]cc(C(=O)CN3CCN(c4ccccc4F)CC3)c2c1`, the AC40 was 2.99 µM.

As for `CC(C)[C@H](C)NC(=O)N(C)C[C@H]1OCc2ccccc2-c2c(n(C)c3ccccc23)C(=O)N([C@H](C)CO)C[C@H]1C`, the AC40 was 5.85 µM.

Consider `CCN(CC)CC(=O)N1c2ccccc2CCc2ccc(NC(=O)c3cc(OC)c(OC)c(OC)c3)cc21`, for which the AC40 is 8.84 µM.

Consider `CC(=O)Nc1cc(C(=O)OCc2cccc([N+](=O)[O-])c2)ccc1C`, for which the AC40 was 10.4 µM.

For `CN1c2ccccc2C2(C)CCCC3=Cc4cccc([N+](=O)[O-])c4OC312` (configuration not stated), the AC40 was 0.48 µM.

With `COc1ccc(OC(=O)N(C)C[C@H]2OCc3ccccc3-c3c(n(C)c4ccccc34)C(=O)N([C@H](C)CO)C[C@H]2C)cc1`, the AC40 is 6.06 µM.

Take `Cc1cccc(-c2ccc(C3[C@@H]4CN(C(=O)C5CCCCC5)C[C@H]3N4)cc2)c1` (some centres not stated): the AC40 is 6.09 µM.

Turning to `Cc1cc2oc(=O)cc(CN3CCC(C)CC3)c2cc1C`, the AC40 is 5.71 µM.

As to `CCOC(=O)c1c(NC(=O)CSc2cn(CC)c3ccccc23)sc2c1CCC2`, the AC40 was 6.55 µM.

Values taken from PubChem BioAssay AID720513 (Broad Institute, 2013).
